{
  "source": "patent US20220111028A1",
  "about": "“Combination Of A STING Agonist And A Complex Comprising A Cell Penetrating Peptide, A Cargo And A TLR Peptide Agonist” (priority 2020, published 2022)",
  "key": {"TC-1 tumor [1]": {"tested_on": "TC-1 tumor", "test": "TC-1 tumor model: tumor growth, survival and circulating CD8 T cells (STINGa 2)", "type": "in vivo, C57BL/6 mice", "conditions": "TC-1 model, complex day 6 and 13, STINGa 2 s.c. days 6, 10, 13 and 17", "description": "(§1) C57BL/6 mice were implanted s.c. with 1×10^5 TC-1 tumor cells in the back and mice were stratified according to tumor size on day 6 tumor implantation. Alternatively, C57BL/6J mice were injected i.v. with 1×10^5 B16-OVA cells. Mice were vaccinated two times (at day 6 and 13 post tumor implantation) by s.c. injection of 10 nmoles of vaccine at the tail base. At the same time of vaccination, mice received 25 μg of STING agonist administered via 2×50 μl s.c. injections in each side of the low back. Alternatively, at the same time of vaccination, mice received 10 μg of STING agonist 2 administered via 2×100 μl s.c. injections in each side of the low back.\n(§2) Tumor size was measured with a caliper and mice were euthanized when tumor reached a volume of 1000 mm^3. Tumor volume was calculated with the following formula:\n(§3) V=length×length×width×Pi/6\nSimilarly as described above, 10^5 TC-1 cells were implanted on the back of C57BL/6 mice and assigned to distinct groups (control (no treatment); complex comprising a cell penetrating peptide, at least one antigen or antigenic epitope, and a TLR peptide agonist (Z13Mad25Anaxa); STING agonist STINGa 2; and a combination thereof). […]"}, "IFN-α": {"tested_on": "IFN-α", "test": "Quantification of serum interferon-α (ELISA) in tumor-free mice", "type": "in vivo, C57BL/6 mice", "conditions": "4 and 24 hours post first vaccination, s.c.", "description": "Blood was collected from mouse tail vein and serum was isolated by centrifugation using Starstedt tubes. The concentration of IFN-α cytokine was measured using commercial ELISA kits according to the manufacturer's recommendations (PBL Assay Science).\nIn order to evaluate the immunogenicity of the combination, tumor-free C57BL/6 mice were vaccinated twice at 2 weeks interval (at day 0 and 14) by s.c. injection of 10 nmoles of Z13Mad25Anaxa (an exemplified a complex comprising a cell penetrating peptide, at least one antigen or antigenic epitope, and a TLR peptide agonist, which contains human papilloma virus (HPV)-derived CD4 and CD8 epitopes. At about the same time of vaccination, mice received 25 μg of STING agonist ADU-S100 administered via 2×50 μl s.c. injections in each side of the low back. Serum was collected 4 and 24 hours after the first vaccination and IFN-α concentration was measured by ELISA. Whole blood was collected at day 21 and used for antigen-specific CD8 T cells measurement by multimer flow cytometry staining. At the same time, spleens were harvested and splenocytes used for ex vivo stimulation and intracellular cytokine production was analyzed by flow cytometry. Alternatively, splenocytes were used for TCR avidity assay."}, "[2]": {"tested_on": "HPV-E7-specific CD8 T cells, splenic CD8 and CD4 T cells", "test": "Immunogenicity in tumor-free mice: multimer staining and flow cytometry of blood and splenocytes", "type": "in vivo, C57BL/6 mice", "description": "(§4) Peripheral blood and spleen mononuclear cell suspensions from mice were isolated using Ficoll-Paque gradient (GE Healthcare) before flow cytometry analysis, ex vivo stimulation or TCR avidity assay.\nTILs, LILs or splenocytes were numerated and 1×10^5 or 2×10^6 cells were plated per condition, respectively. Cells were incubated with HPV-CD4, HPV-CD8, OVA-CD8 or OVA-CD4 epitope peptide, with PMA/ionomycin as a positive control or without any stimulant as a negative control, in presence of Golgi stop (BD biosciences) and anti-CD107a for 6 hours. […]\nThe following antibodies were used: CD45 (30-F11), CD11b (M1/70), KLRG1 (2F1), CD103 (M290), NKg2a (20d5), Ly6C (AL-21), Ly6G (1A8), PD-L1 (MIH5), I-A/I-E (M5/114), CD11c (HL3), PDCA1 (927), CD64 (X54-5/7.1), B220 (RA3-6B2), CD24 (M1/69), CD4 (GK1.5), CD25 (3C7), CD3 (500A2), NKp46 (29A1.4), TNF-α (MP6-XT22), IFN-γ (XMG1.2), H2-Kb (AF6-88.5) and H2-db (28-14-8) were from BD Biosciences; Tim3 (RMT3-23), PD-1 (29F.1A12), CD38 (90), Gr-1 (RB6-8C5), CD206 (C068C2), CD68 (FA-11) were from BioLegend; Ki67 (solA15), FoxP3 (FJK-16s), T-bet (4B10), GATA-3 (TWAJ) and RORγt (AFKJS-9) were from ThermoFisher Scientific; Granzyme B (REA226) was from Miltenyi; CD8 (KT15) was from MBL. […] Cells were analyzed using an Attune NxT flow cytometer (ThermoFisher Scientific) Kaluza (Beckman Coulter) software. […]"}, "TC-1 tumor [3]": {"tested_on": "TC-1 tumor", "test": "TC-1 tumor model: antigen-specific CD8 T cell responses", "type": "in vivo, C57BL/6 mice", "description": "as §1\n(§5) TC-1 tumors were harvested at day 20 post implantation and tumor-infiltrating leucocytes (TIL) were purified using Miltenyi tumor dissociation kit following manufacturer instruction. Briefly, tumor tissues were cut into small pieces, and resuspended in DMEM medium containing tumor dissociating enzymes (Miltenyi). Tumors were digested on a Gentle MACS with heating system (Miltenyi) using solid tumor program. Enzymatic digestion was stopped by adding cold PBS 0.5% BSA solution and keeping cells on ice. Digested tumors were passed through a 70 μm to eliminate remaining undigested tissue. CD45+ cells were purified using CD45 TIL microbeads (Miltenyi) following manufacturer protocol. Purified CD45+ cells were used for flow cytometry staining or ex vivo T cells stimulation.\nas §4\nTILs, LILs or splenocytes were numerated and 1×10^5 or 2×10^6 cells were plated per condition, respectively. […]\nThe following antibodies were used: CD45 (30-F11), CD11b (M1/70), KLRG1 (2F1), CD103 (M290), NKg2a (20d5), Ly6C (AL-21), Ly6G (1A8), PD-L1 (MIH5), I-A/I-E (M5/114), CD11c (HL3), PDCA1 (927), CD64 (X54-5/7.1), B220 (RA3-6B2), CD24 (M1/69), CD4 (GK1.5), CD25 (3C7), CD3 (500A2), NKp46 (29A1.4), TNF-α (MP6-XT22), IFN-γ (XMG1.2), H2-Kb (AF6-88.5) and H2-db (28-14-8) were from BD Biosciences; Tim3 (RMT3-23), PD-1 (29F.1A12), CD38 (90), Gr-1 (RB6-8C5), CD206 (C068C2), CD68 (FA-11) were from BioLegend; Ki67 (solA15), FoxP3 (FJK-16s), T-bet (4B10), GATA-3 (TWAJ) and RORγt (AFKJS-9) were from ThermoFisher Scientific; Granzyme B (REA226) was from Miltenyi; CD8 (KT15) was from MBL. […] Cells were analyzed using an Attune NxT flow cytometer (ThermoFisher Scientific) Kaluza (Beckman Coulter) software.\nTo this end, 10^5 TC-1 tumor cells were implanted on the back of C57BL/6 mice. […] One week after the last treatment, mice were sacrificed, tumor harvested, and CD8 T cells presence and phenotype was analyzed by FACS staining."}, "TC-1 tumor [4]": {"tested_on": "TC-1 tumor", "test": "TC-1 tumor model: intra-tumoral CD4 T cell responses", "type": "in vivo, C57BL/6 mice", "description": "as §1\nas §5, with “Purified CD45+ cells were used for flow cytometry staining or ex vivo T cells stimulation.” left out\nIn view thereof, intra-tumoral CD4 T cells were monitored next. […]"}, "TC-1 tumor [5]": {"tested_on": "TC-1 tumor", "test": "TC-1 tumor model: tumor microenvironment composition by FACS", "type": "in vivo, C57BL/6 mice", "conditions": "systemic administration", "description": "as §1\nas §5, with “Purified CD45+ cells were used for flow cytometry staining or ex vivo T cells stimulation.” left out"}, "TC-1 tumor [6]": {"tested_on": "TC-1 tumor", "test": "TC-1 tumor model: intra-tumoral expression of PD-L1, MHC-I and MHC-II", "type": "in vivo, C57BL/6 mice", "description": "as §1\nTC-1 tumors were harvested at day 20 post implantation and tumor-infiltrating leucocytes (TIL) were purified using Miltenyi tumor dissociation kit following manufacturer instruction. Briefly, tumor tissues were cut into small pieces, and resuspended in DMEM medium containing tumor dissociating enzymes (Miltenyi). Tumors were digested on a Gentle MACS with heating system (Miltenyi) using solid tumor program. […]\nFurthermore, down-regulation of MHC-I expression on tumor cells is one of the main mechanism of immune evasion. Therefore, the intra-tumoral expression of PD-L1 and MHC-I as well as MHC-II was also monitored in the TC-1 tumor model as described above."}, "TC-1 tumor [7]": {"tested_on": "TC-1 tumor", "test": "TC-1 tumor model: tumor growth and survival (STINGa)", "type": "in vivo, C57BL/6 mice", "conditions": "TC-1 model, treated twice at one-week interval", "description": "as §1, §2, §3\n10^5 TC-1 cells were implanted on the back of C57BL/6 mice. When tumors were visible, mice were treated twice at one-week interval as described above in therapeutic settings of the TC-1 tumor model with (i) the complex comprising a cell penetrating peptide, at least one antigen or antigenic epitope, and a TLR peptide agonist (Z13Mad25Anaxa); (ii) the STING agonist; or (iii) a combination of both."}, "B16-OVA tumor": {"tested_on": "B16-OVA tumor", "test": "B16-OVA pulmonary metastases tumor model", "type": "in vivo, C57BL/6 mice", "conditions": "B16-OVA i.v., day 20", "description": "as §1\nB16-OVA tumor bearing mice were sacrificed at day 20, lungs were perfused with a saline solution and the number of lung metastasis was counted.\nB16-OVA tumor bearing mice were perfused with a saline solution to eliminate blood from the lungs before their collection. Lung-infiltrating leucocytes (LILs) were purified using mouse tumor dissociation kit from Miltenyi, following manufacturer instruction. […]\nBriefly, 10^5 B16-OVA cells were injected intravenously into C57BL/6 mice. […] At day 20 (10 days after the last vaccination), lungs were perfused to eliminate blood, the number of pulmonary metastasis was counted, and lung infiltrating lymphocytes (LILs) were analyzed."}, "MC38-CEA tumor": {"tested_on": "MC38-CEA tumor", "test": "MC38-CEA tumor model: CEA-specific CD8 T cells by multimer staining", "type": "in vivo, C57BL/6J mice", "conditions": "multimer staining one week after second vaccination, MC38-CEA tumor-bearing mice", "description": "Alternatively, female C57BL/6J mice were implanted with 5×10^5 MC38-CEA tumor cells subcutaneously on the back of the mouse and vaccinated twice at the base of the tail (at day 6 and 13 post tumor implantation) by s.c. injection of 10 nmoles of vaccine, 25 μg of STINGa (ADU-S100) or a combination of the two.\nFemale C57BL/6J mice were implanted with 5*10^5 MC38-CEA tumor cells subcutaneously on the back of the mouse. At day 6 and day 13 post tumor implantation, mice were vaccinated with 10 nmol of ATP128, 25 μg of a STING agonist (ADU-S100) or a combination of the two. Both the ATP128 vaccine and the STING agonist were injected subcutaneously at the base of the tail. One week after the second vaccination, mouse blood was collected from the tail vein and the frequency and the total number of CEA-specific CD8 T cells was analyzed by flow cytometry using a custom designed multimer."}},
  "data": [
    {"molecule": "Nc1ncnc2c1ncn2[C@@H]1O[C@@H]2COP(=O)(S)O[C@@H]3[C@H](O)[C@@H](COP(=O)(S)O[C@H]2[C@H]1F)O[C@H]3n1cnc2c(=O)[nH]ncc21", "note": "(stereo partly drawn) [STINGa 2]", "values": [
      {"measurement": "Survival", "setting": "TC-1 tumor [1]", "value": "only provided a slight improvement"},
      {"measurement": "Tumor growth", "setting": "TC-1 tumor [1]", "value": "only provided a slight improvement"}
    ]},
    {"molecule": "Nc1ncnc2c1ncn2[C@@H]1O[C@@H]2CO[P@@](=O)([S][Na])O[C@@H]3[C@H](O)[C@@H](CO[P@@](=O)([S][Na])O[C@H]2[C@H]1O)O[C@H]3n1cnc2c(N)ncnc21", "note": "[STINGa, reference compound]", "values": [
      {"measurement": "Serum IFN-α level (systemic type I interferon response)", "setting": "IFN-α", "value": "high IFN-α serum levels peaking 4 hours post injection and decreasing already 24 hours later"},
      {"measurement": "Proportion of splenic CD8 T cells", "setting": "[2]", "value": "higher proportion of splenic CD8 T cells"},
      {"measurement": "Cytokine secretion by CD8 T cells after ex vivo PMA/Ionomycin restimulation", "setting": "[2]; splenocytes", "value": "increased cytokine secretion"},
      {"measurement": "HPV-specific proportion of tumor-infiltrating CD8 T cells (in words)", "setting": "TC-1 tumor [3]; TC-1 tumor", "value": "did not modulate"},
      {"measurement": "Expression of exhaustion markers PD-1 and Tim-3 by tumor-infiltrating CD8 T cells", "setting": "TC-1 tumor [3]; TC-1 tumor, flow cytometry", "value": "expressed only PD-1 or no exhaustion marker at all"},
      {"measurement": "CD8 T cells tumor infiltration", "setting": "TC-1 tumor [3]; TC-1 tumor, one week after last treatment", "value": "did not modulate"},
      {"measurement": "Circulating HPV-specific CD8 T cells (frequency and number)", "setting": "TC-1 tumor [3]; blood, one week after last treatment, TC-1 tumor-bearing mice", "value": "no effect"},
      {"measurement": "Tumor infiltration by CD4 T cells", "setting": "TC-1 tumor [4]", "value": "no effect on intra-tumoral CD4 T cells recruitment"},
      {"measurement": "Composition of TME", "setting": "TC-1 tumor [5]", "value": "does not affect the composition of TME"},
      {"measurement": "Intra-tumoral immunogenicity (modulation of TME)", "setting": "TC-1 tumor [6]", "value": "no effect was observed"},
      {"measurement": "Tumor development / tumor growth", "setting": "TC-1 tumor [7]", "value": "only a small effect on tumor growth"},
      {"measurement": "Number of metastatic nodules per lung", "setting": "B16-OVA tumor", "value": "no effect"}
    ]},
    {"molecule": "ATP128: Vaccine construct (SEQ ID NO: 54) containing CEA, survivin and ASCL2 epitopes, cell penetrating peptide and TLR peptide agonist", "values": [
      {"measurement": "CEA-specific CD8 T cell response", "setting": "MC38-CEA tumor", "value": "elicits CEA-specific CD8 T cells"}
    ]}
  ]
}
